# Measurements as given in article PMC11358092, “Caspofungin enhances the potency of rifampin against Gram-negative bacteria” (Frontiers in Microbiology, 2024).
# Counter-ions that a name gives are not always drawn. Like-named read-outs stand apart in the source and are kept apart here. Numbered stars: 1 amine (or outer) side, 2 acyl side, 3 side chain; on linkers, the order of the positions; unused ones are H or OH. Bridge positions count the residues as written; N and C are the ends. Square brackets hold non-standard residues; d marks the D form. Peptide text beside a SMILES is read from it. * marks the point of attachment. pTerphenylCO(4''-OnC5H11) = CCCCCOc1ccc(-c2ccc(-c3ccc(C(=O)*)cc3)cc2)cc1; Orn(4R-OH,5R-OH) = O=C([C@H](C[C@@H](O)[C@@H](O)N[*:3])N[*:1])[*:2]; hTyr(3S-OH,4S-OH) = N[C@H](C(=O)O)[C@H](O)[C@@H](O)c1ccc(O)cc1; Pro(3S-OH,4S-Me) = C[C@H]1CN[C@H](C(=O)O)[C@H]1O; Hyp = O=C(O)[C@@H]1C[C@@H](O)CN1
# Key:
# E. coli MG1655 [1] = assay: High-throughput screening of FDA-approved drug library for antibiotic adjuvants (growth inhibition, OD600); type: cell-based, Escherichia coli
# E. coli MG1655 [2] = assay: as above; type: cell-based, Escherichia coli; conditions: library drug alone, LB medium, 96-well, 8 h static culture at 37°C, relative to PMBN (positive) and DMSO (negative) controls, %, table head prints no unit
# E. coli MG1655 [3] = assay: microbe, parasite or virus in culture; type: cell-based, Escherichia coli; conditions: for FICI in combination with rifampin: 8 × 8 checkerboard, FICI ≤0.5 indicates synergy; for Synergistic activity with rifampin (in words): checkerboard assays, analogs of CAS
# Experimental: (§1) Checkerboard assays were performed to evaluate the synergistic effect of CAS in combination with antibiotics as previously described ([Cai et al., 2023]). Briefly, antibiotics and CAS were diluted two times with MHB medium (with or without Mg^2+ or EDTA) in a 96-well plate, respectively, to form an 8 × 8 medium, and an equal volume (200 μL/well) of bacterial suspension with the drug was cultured. A microplate reader was used to measure the OD600 value after 18 h of culture at 37°C (the OD600 value over 0.1 indicates bacterial growth). The fractional inhibitory concentration index (FICI) was calculated using the following formula: FICI = MICab/MICa + MICba/MICb. MICa and MICb are the corresponding MIC values of compounds A and B alone, respectively; MICab is the MIC value of compound A combined with compound B; and MICba is the MIC value of compound B combined with compound A. Indicative of synergy is FICI ≤0.5.
# K+ channel (KvQT1/minK) = conditions: vendor library annotation (Targetmol); ref Kang J, et al. J Pharmacol Exp Ther. 2001 Oct;299(1):290-6; read-out: IC50, K+ channel (KvQT1/minK) antagonist; cited from earlier work
# Excerpt: Supplement Table_1.XLSX, sheet "Sheet1" | column: Bioactivity
# [4] = tested on: Salmonella Typhimurium ATCC14028; assay: Checkerboard assay; type: cell-based; conditions: MHB, 18 h at 37°C, OD600
# Experimental: as §1
# E. coli MG1655 [5] = assay: Time-kill curve; type: cell-based, Escherichia coli; conditions: 1 × 10^6 CFU in MHB; CAS 16 μg/mL, rifampin 1 μg/mL, alone or combined; counted at 4, 8, 24 h
# Experimental: (§2) At each time point (0, 4, 8, and 24 h), 100 μL of the bacterial solution was continuously diluted 10-fold in physiological saline. Subsequently, the suspension was then plated onto LB agar plates and cultured for an overnight period at 37°C for bacterial count.
# E. coli 72 [6] = assay: Time-kill curve; type: cell-based, Escherichia coli; conditions: 1 × 10^6 CFU in MHB; CAS 32 μg/mL, rifampin 8 μg/mL, alone or combined; counted at 4, 8, 24 h
# Experimental: as §2
# P. aeruginosa PAO1 = assay: Checkerboard assay; type: cell-based, Pseudomonas aeruginosa; conditions: MHB, 18 h at 37°C, OD600
# Experimental: as §1
# E. coli 72 [7] = assay: Checkerboard assay; type: cell-based, Escherichia coli; conditions: multidrug-resistant strain, MHB, 18 h at 37°C, OD600
# Experimental: as §1
# E. coli ATCC25922 = assay: Checkerboard assay; type: cell-based, Escherichia coli; conditions: MHB, 18 h at 37°C, OD600
# Experimental: as §1
# E. coli 69 = assay: Checkerboard assay; type: cell-based, Escherichia coli; conditions: MHB, 18 h at 37°C, OD600
# Experimental: as §1
# E. coli 72 [8] = assay: Galleria mellonella infection model; type: in vivo; conditions: 2.25 × 10^5 CFU E. coli 72; CAS 64 mg/kg, rifampin 16 mg/kg, alone or in combination, injected via proleg; 10 larvae per group; survival over 48 h
# [9] = library drug with 2 μg/mL rifampin, LB medium, 96-well, 8 h static culture at 37°C, OD600, relative to PMBN (positive) and DMSO (negative) controls, %, table head prints no unit
molecule,measurement,setting,value
Streptozocin,"Growth inhibition, Compound + rifampin",E. coli MG1655 [1],69%
same,"Growth inhibition, Compound",E. coli MG1655 [2],62%
CO[C@@]1(NC(=O)CSC(F)F)C(=O)N2C(C(=O)[O-])=C(CSc3nnnn3CCO)CO[C@@H]21.[Na+] [Flomoxef sodium],"Growth inhibition, Compound + rifampin",E. coli MG1655 [1],101%
same,"Growth inhibition, Compound",E. coli MG1655 [2],108%
Echinocandin B nucleus hydrochloride [ECBN HCl],FICI in combination with rifampin,"E. coli MG1655 [3]; MHB, 18 h at 37°C",> 1
same,Synergistic activity with rifampin (in words),E. coli MG1655 [3],weak synergistic activity
Colistin sulfate (1066-17-7 free base),"Growth inhibition, Compound + rifampin",E. coli MG1655 [1]; [9],113%
same,"Growth inhibition, Compound",E. coli MG1655 [2],104%
CC(=O)OC[C@H]1O[C@@H]([S-])[C@H](OC(C)=O)[C@@H](OC(C)=O)[C@@H]1OC(C)=O.CCP(CC)CC.[Au+] [Auranofin],"Growth inhibition, Compound + rifampin",E. coli MG1655 [1],60%
same,"Growth inhibition, Compound",E. coli MG1655 [2],64%
Cefetamet pivoxil hydrochloride,"Growth inhibition, Compound + rifampin",E. coli MG1655 [1],79%
same,"Growth inhibition, Compound",E. coli MG1655 [2],98%
"CCCCCOc1ccc(-c2ccc(-c3ccc(C(=O)N[C@H]4C[C@@H](O)[C@@H](O)NC(=O)[C@@H]5[C@@H](O)[C@@H](C)CN5C(=O)[C@H]([C@@H](C)O)NC(=O)[C@H]([C@H](O)[C@@H](O)c5ccc(O)cc5)NC(=O)[C@@H]5C[C@@H](O)CN5C(=O)[C@H]([C@@H](C)O)NC4=O)cc3)cc2)cc1 [Anidulafungin] ({pTerphenylCO(4''-OnC5H11)}-[Orn(4R-OH,5R-OH)]T[Hyp][hTyr(3S-OH,4S-OH)]T[Pro(3S-OH,4S-Me)]; lactam 1-C; N-terminus assumed)",FICI in combination with rifampin,"E. coli MG1655 [3]; MHB, 18 h at 37°C",> 1
same,Synergistic activity with rifampin (in words),E. coli MG1655 [3],weak synergistic activity
Colistin Methanesulfonate (sodium salt),"Growth inhibition, Compound + rifampin",E. coli MG1655 [1]; [9],102%
same,"Growth inhibition, Compound",E. coli MG1655 [2],87%
Colistimethate Sodium,"Growth inhibition, Compound + rifampin",E. coli MG1655 [1]; [9],95%
same,"Growth inhibition, Compound",E. coli MG1655 [2],94%
O=C(O)c1cn(C2CC2)c2cc(N3CCNCC3)c(F)cc2c1=O [Ciprofloxacin hydrochloride hydrate],"Growth inhibition, Compound",E. coli MG1655 [1],101%
OC(c1cc(C(F)(F)F)nc2c(C(F)(F)F)cccc12)C1CCCCN1 (stereo not drawn) [Mefloquine],IC50,K+ channel (KvQT1/minK),~1000 nM
Pneumocandin B0,FICI in combination with rifampin,"E. coli MG1655 [3]; MHB, 18 h at 37°C",> 1
same,Synergistic activity with rifampin (in words),E. coli MG1655 [3],weak synergistic activity
Polymyxin B sulfate (1404-26-8 free base),"Growth inhibition, Compound + rifampin",E. coli MG1655 [1]; [9],104%
Micafungin sodium,FICI in combination with rifampin,"E. coli MG1655 [3]; MHB, 18 h at 37°C",> 1
same,Synergistic activity with rifampin (in words),E. coli MG1655 [3],weak synergistic activity
O=C(O)c1cn(C2CC2)c2cc(N3CCNCC3)c(F)cc2c1=O [Ciprofloxacin hydrochloride],"Growth inhibition, Compound",E. coli MG1655 [1],98%
CO[C@H]1/C=C/O[C@@]2(C)Oc3c(C)c(O)c4c(O)c(c(/C=N/N5CCN(C)CC5)c(O)c4c3C2=O)NC(=O)/C(C)=C\C=C\[C@H](C)[C@H](O)[C@@H](C)[C@@H](O)[C@@H](C)[C@H](OC(C)=O)[C@@H]1C [rifampin],MIC,"[4]; Salmonella enterica, rifampin alone",16 µg/mL
same,MIC of rifampin in combination with CAS,[4]; rifampin with CAS,0.5 µg/mL
same,"Time-kill, bacterial count",E. coli MG1655 [5],no antimicrobial efficacy
same,"Time-kill, bacterial count",E. coli 72 [6],no antimicrobial efficacy
same,MIC,"E. coli MG1655 [3]; Escherichia coli, MG1655, rifampin alone, MHB, 18 h at 37°C, OD600",8 µg/mL
same,MIC of rifampin in combination with CAS,"E. coli MG1655 [3]; rifampin with CAS, MHB, 18 h at 37°C, OD600",0.5 µg/mL
same,MIC,"P. aeruginosa PAO1; Pseudomonas aeruginosa, PAO1, rifampin alone",16 µg/mL
same,MIC of rifampin in combination with CAS,P. aeruginosa PAO1; rifampin with CAS,0.5 µg/mL
same,MIC,"E. coli 72 [7]; Escherichia coli, 72, rifampin alone",64 µg/mL
same,MIC of rifampin in combination with CAS,E. coli 72 [7]; rifampin with CAS,0.5 µg/mL
same,MIC,"E. coli ATCC25922; Escherichia coli, ATCC25922, rifampin alone",4 µg/mL
same,MIC of rifampin in combination with CAS,E. coli ATCC25922; rifampin with CAS,0.25 µg/mL
same,MIC,"E. coli 69; Escherichia coli, 69, rifampin alone",8 µg/mL
same,MIC of rifampin in combination with CAS,E. coli 69; rifampin with CAS,0.5 µg/mL
same,Death/mortality rate of G. mellonella larvae challenged with E. coli 72,E. coli 72 [8],could not reduce the death rate
same,"Growth inhibition, Compound",E. coli MG1655 [2],101%
O=C(Cn1cnnn1)N[C@@H]1C(=O)N2C(C(=O)[O-])=C(CSc3nncs3)CS[C@H]12.[Na+] [Ceftezole sodium],"Growth inhibition, Compound + rifampin",E. coli MG1655 [1],102%
same,"Growth inhibition, Compound",E. coli MG1655 [2],109%
N[C@@H](C(=O)N[C@@H]1C(=O)N2C(C(=O)O)=C(Cl)CS[C@H]12)c1ccccc1 [Cefaclor monohydrate],"Growth inhibition, Compound",E. coli MG1655 [2],80%
